The record followed here is US9540338B2, “Substituted cinnamic acid amides for treating pain” (NIPPON ZOKI PHARMACEUTICAL CO., LTD., priority 2012, dated 2017).

Structures can show the parent of a compound that is named as a salt. Marks after values point to notes of the source that are not given here.

In one series the test system is ddY-type mice. In words: Analgesic efficacy test (1): acetic acid writhing test. It is filed as in vivo. Particulars: Mus musculus, writhing number, mean ± standard error, 8 mice per group, read-out: Suppressive Rate; for inhibition in vivo at 10 mg/kg: oral single dose 10 mg/kg; for inhibition in vivo at 100 mg/kg: oral single dose 100 mg/kg. An excerpt: A compound of the present invention was orally administered to mice, to carry out an analgesic efficacy test according to acetic acid writhing test. As an experimental animal, 4-week old male ddY-type mice were previously bred, and thereafter 8 mice per one group were used in the experiment. A solution or suspension prepared by dissolving or suspending a compound of the present invention in a 0.5% (w/v) aqueous CMC-Na solution was orally administered as a test substance in a single dose. While, to a control group, a 0.5% (w/v) aqueous CMC-Na solution was administered in the same manner After 25 minutes from administration, the mice were intraperitoneally administered with a 0.7% (v/v) acetic acid/physiological saline at the dose of 10 mL/kg. From 5 minutes thereafter, writhing number in a 10-minute period was counted, and a suppressive rate for each individual (mean±standard error) was calculated by the following formula: […]
In the test for significance difference, Bartlett's test was carried out in the comparison between multiple groups of the group administered with test substance with the control group. In the case of homoscedasticity, Dunnett's multiple comparison test of parametrics, and in the case of heteroscedasticity, Dunnett's multiple comparison test of non-parametrics were used. In addition, in the test of dose dependency, Jonckheere-Terpstra's test was used. In all cases, significance difference was considered to be found at P<0.05 (indicated as “*” in the table).
(In general: An intraperitoneal irritant provokes the stretching counted in writhing tests.)

Another series has as its system Chung model rat. In words: Analgesic efficacy test (2): Chung model rat, neuropathic pain model (allodynia, von Frey filament). It is filed as in vivo, rats. Particulars: mean ± standard error. On the procedure:
An analgesic efficacy test was conducted using a Chung model rat, a neuropathic pain model. Nine-week old Wistar male rats were previously bred as an experimental animal, and a model rat was then prepared in accordance with the method of Kim and Chung (Pain, 50, 355-363, 1992). Specifically, left L5 spinal nerves of rats were exposed under anesthetization with pentobarbital (40 mg/kg, intraperitoneal administration), and firmly ligated with 5-0 silk yarn at L5 dorsal root ganglion peripheral side. The animals were placed in a transparent acrylic cage of which bottom was wire netted The measurement of allodynia was carried out using von Frey filament (manufactured by North Coast Medical Inc.) and a 50% reaction threshold was calculated according to an up-down method, in accordance with a method of Chaplan et al. (J. Neurosci. Method, 53, 55-63, 1994). The 50% reaction thresholds were measured twice before injury of the spinal nerve, and those animals of which thresholds were outside the standard were removed from the operation of spinal nerve injury. On or after 14 days from the spinal nerve injury, a 50% reaction threshold was measured, and those showing thresholds of 1 g or more and less than 4 g were used as experimental animal. The group was constituted by 7 or 8 rats per group so that an average of a 50% reaction threshold for each group would be nearly even.
A solution or suspension prepared by dissolving or suspending a compound of the present invention in a 0.5% (w/v) aqueous CMC-Na solution was orally administered as a test substance in a single dose. Also, a 0.5% (w/v) aqueous CMC-Na solution was administered in the same manner to the control group for nerve injury. The measurements of allodynia were carried out with the passage of time after administration, and a 50% reaction threshold (mean±standard error) of each group at action peak was calculated. In the test for significance difference, Bartlett's test was carried out in the comparison between multiple groups of the group administered with test substance with the control group for nerve injury. In the case of homoscedasticity, Dunnett's multiple comparison test of parametrics, and in the case of heteroscedasticity, Dunnett's multiple comparison test of non-parametrics were used. In all cases, significance difference was considered to be found at P<0.05 (indicated as “*” in the tables).

Setting [1] is: oral 1 mg/kg, measurement point 30 minute (action peak).
The mark [2] stands for this setting: oral 10 mg/kg, measurement point 30 minute (action peak).
Where [3] appears, read: oral 1 mg/kg, measurement point 90 minute (action peak).
Setting [4] is: oral 10 mg/kg, measurement point 90 minute (action peak).
Where [5] appears, read: oral 1 mg/kg, measurement point 60 minute (action peak).
Where [6] appears, read: oral 10 mg/kg, measurement point 60 minute (action peak).

Take `O=C(/C=C/c1ccccc1F)NCc1cccnc1` [Compound 2, (E)-3-(2-Fluorophenyl)-N-(3-pyridylmethyl)-2-propenamide]: the melting point is 115 to 116 °C. In the series with ddY-type mice, the inhibition in vivo at 10 mg/kg came to 39.9 ± 10.4% and the inhibition in vivo at 100 mg/kg came out at 39.9 ± 10%. Further, in the series with Chung model rat (setting [1]), the “50% Reaction Threshold, Group Administered with Test Substance, After Administration” value (shortened to “50% Reaction Threshold”) is on record as 4.85 ± 0.78 g. For the same compound, in the series on Chung model rat (setting [2]), the “50% Reaction Threshold” value is 7.76 ± 1.30* g.
Consider `O=C(/C=C/c1ccccc1F)NCCc1ccncc1` [Compound 3, (E)-3-(2-Fluorophenyl)-N-[2-(4-pyridyl)ethyl]-2-propenamide], for which the melting point lay within 95 to 96 °C. Further, in the series on ddY-type mice, the inhibition in vivo at 10 mg/kg worked out at 44.4 ± 11.1% and the inhibition in vivo at 100 mg/kg is 59 ± 8.1%. Also, the “50% Reaction Threshold” value with Chung model rat (setting [3]) is 6.74 ± 1.04* g. Besides, the “50% Reaction Threshold” value in the series on Chung model rat (setting [4]) is reported as 10.06 ± 1.60* g.
In turn, `O=C(/C=C/c1ccccc1F)NCCN1CCCCC1` [Compound 4, (E)-3-(2-Fluorophenyl)-N-[2-(1-piperidyl)ethyl]-2-propenamide] had a melting point of 84 to 85 °C. Further, in the series with ddY-type mice, the inhibition in vivo at 10 mg/kg was found to be 47 ± 7.8% and the inhibition in vivo at 100 mg/kg was 49 ± 9.2%. The “50% Reaction Threshold” value in the series on Chung model rat (setting [1]) was determined as 3.98 ± 0.21 g. For the same compound, in the series with Chung model rat (setting [2]), the “50% Reaction Threshold” value is listed as 7.35 ± 0.95* g.
Turning to `O=C(/C=C/c1ccccc1F)NCCN1CCOCC1` [Compound 5, (E)-3-(2-Fluorophenyl)-N-(2-morpholinoethyl)-2-propenamide], the melting point lay within 112 to 113 °C. In the series on ddY-type mice, the inhibition in vivo at 10 mg/kg is 34.8 ± 10.3% and the inhibition in vivo at 100 mg/kg was 95.7 ± 3.1%. For the same compound, in the series on Chung model rat (setting [3]), the “50% Reaction Threshold” value turned out to be 4.91 ± 0.73 g. Further, the “50% Reaction Threshold” value in the series with Chung model rat (setting [4]) is reported as 8.68 ± 1.91* g.
The like results for `O=C(/C=C/c1ccccc1F)NCCN1CCN(C2CCCCC2)CC1` [Compound 6, (E)-N-[2-(4-Cyclohexylpiperazin-1-yl)ethyl]-3-(2-fluorophenyl)-2-propenamide] were, in that order, 113 to 114 °C, 29.6 ± 12.8%, 70.4 ± 6.1%, 10.87 ± 1.24* g and 14.06 ± 0.61* g.
`O=C(/C=C/c1ccccc1F)NCCCN1CCN(C2CCCCC2)CC1` [Compound 7, (E)-N-[3-(4-Cyclohexylpiperazin-1-yl)propyl]-3-(2-fluorophenyl)-2-propenamide] displayed a melting point of 84 to 85 °C. In the series with ddY-type mice, the inhibition in vivo at 10 mg/kg came to 41.5 ± 17.2% and the inhibition in vivo at 100 mg/kg is 68.4 ± 8%. The “50% Reaction Threshold” value in the series on Chung model rat (setting [3]) came to 9.05 ± 1.80 g. Also, the “50% Reaction Threshold” value with Chung model rat (setting [4]) was 12.70 ± 1.16* g.
In turn, `Cn1cccc1CCNC(=O)/C=C/c1ccccc1F` [Compound 8, (E)-3-(2-Fluorophenyl)-N-[2-(1-methyl-1H-pyrrol-2-yl)ethyl]-2-propenamide] showed a melting point of 93 to 94 °C. In the series on ddY-type mice, the inhibition in vivo at 10 mg/kg was determined as 8.5 ± 13.9% and the inhibition in vivo at 100 mg/kg stood at 28.1 ± 8.3%. For the same compound, the “50% Reaction Threshold” value with Chung model rat (setting [3]) stood at 4.37 ± 0.53 g. The “50% Reaction Threshold” value in the series on Chung model rat (setting [4]) is 5.57 ± 1.18* g.
`Cl.O=C(/C=C/c1ccccc1F)NCCCN1CCOCC1` [Compound 11, (E)-3-(2-Fluorophenyl)-N-(3-morpholinopropyl)-2-propenamide hydrochloride]: the melting point is 153 to 154 °C. In addition, in the series with ddY-type mice, the inhibition in vivo at 10 mg/kg was 23.2 ± 12.8% and the inhibition in vivo at 100 mg/kg was 68.9 ± 4.5%. Besides, in the series on Chung model rat (setting [5]), the “50% Reaction Threshold” value is 11.69 ± 1.80* g. In addition, the “50% Reaction Threshold” value in the series with Chung model rat (setting [6]) is 14.27 ± 0.73* g.
The matching figures for `CN(C)CCCNC(=O)/C=C/c1ccccc1F.Cl` [Compound 12, (E)-N-(3-Dimethylaminopropyl)-3-(2-fluorophenyl)-2-propenamide hydrochloride]: 99 to 100 °C, -4.3 ± 12%, 49.4 ± 14.5%, 4.64 ± 0.70 g and 5.00 ± 1.17 g.
The matching figures for `Cl.NCCCCNC(=O)/C=C/c1ccccc1F` [Compound 14, (E)-N-(4-Aminobutyl)-3-(2-fluorophenyl)-2-propenamide hydrochloride]: 177 to 178 °C, 46.3 ± 11.1%, 76.8 ± 4.1%, 12.38 ± 1.15* g and 13.61 ± 0.96* g.
`O=C(/C=C/c1ccccc1F)NCCN1CCNCC1` [Compound 16, (E)-3-(2-Fluorophenyl)-N-[2-(piperazin-1-yl)ethyl]-2-propenamide dihydrochloride]: the inhibition in vivo at 10 mg/kg in the series with ddY-type mice turned out to be 42.6 ± 9.1%. Also, in the series on ddY-type mice, the inhibition in vivo at 100 mg/kg worked out at 65.5 ± 8.9%. Besides, the “50% Reaction Threshold” value in the series with Chung model rat (setting [3]) came out at 5.48 ± 0.82 g; in the series on Chung model rat (setting [4]), 7.48 ± 1.30 g.
`O=C(/C=C/c1ccccc1F)NCCc1c[nH]cn1` [Compound 18, (E)-3-(2-Fluorophenyl)-N-[2-(1H-imidazol-4-yl)ethyl]-2-propenamide] showed a melting point of 152 to 153 °C. Further, in the series on ddY-type mice, the inhibition in vivo at 10 mg/kg was 54.3 ± 13.2% and the inhibition in vivo at 100 mg/kg was 62.3 ± 14.6%. For the same compound, the “50% Reaction Threshold” value with Chung model rat (setting [3]) is 10.92 ± 1.33* g. For the same compound, the “50% Reaction Threshold” value in the series with Chung model rat (setting [4]) is reported as 11.44 ± 1.95* g.
For `Cl.O=C(/C=C/c1ccccc1F)NCCn1ccnc1` [Compound 21, (E)-3-(2-Fluorophenyl)-N-[2-(imidazol-1-yl)ethyl]-2-propenamide hydrochloride], the inhibition in vivo at 10 mg/kg in the series with ddY-type mice amounted to 44.5 ± 11.7%. In addition, the inhibition in vivo at 100 mg/kg with ddY-type mice stood at 49.7 ± 4.7%. Moreover, the “50% Reaction Threshold” value is 6.04 ± 0.89 g in the series on Chung model rat (oral 0.1 mg/kg, measurement point 90 minute (action peak)); 8.80 ± 1.42* g in the series on Chung model rat (oral 0.3 mg/kg, measurement point 90 minute (action peak)); 11.78 ± 1.20* g in the series with Chung model rat (setting [3]).

As a reminder, the melting point is the temperature, or range, at which the solid turns liquid.
